Laboratory results published in publication PMC8140105 (Scientific Reports, 2021).

Columns and labels:
BV-2 cells [1] = assay: qPCR of IL-6 mRNA; type: cell-based, murine; conditions: 10 µM, n = 6, Mann–Whitney U test
Experimental: To confirm the observed ELISA results at mRNA level, a qPCR experiment was performed. After incubation of the BV-2 cells with PapRIV or controls, cells were lysed in RLT buffer (Qiagen, Hilden, Germany) supplemented with 1% β-mercaptoethanol. The lysate was stored at − 80 °C until RNA extraction. RNA was extracted using the RNeasy Mini Kit (Qiagen, Hilden, Germany). DNAse steps were included in the protocol to remove possible DNA contamination. RNA purity and concentration were assessed using spectrophotometry (NanoDrop), while RNA quality was evaluated using capillary electrophoresis (Fragment Analyzer). After extraction, the RNA was immediately converted to cDNA which was stored at − 20 °C until qPCR analysis. Ppia and Rer were chosen as suitable control genes based on the GeNorm and Normfinder algorithms[79],[80]. Used primers are given in Table 5. qPCR cycling was performed using a LightCycler 480 (Roche), with Cq values being calculated using the second derivative threshold method.

BV-2 cells [2] = assay: Immunoblotting (NF-kB p65, IκBα, NIK); type: cell-based, murine
Experimental: To assess nuclear translocation of NF-kB, cells were lysed after 20 h using the NE-PER protocol (Thermo Scientific). Using this kit, the cytoplasmic and nuclear protein fractions are separated from each other. To asses IκBα expression, cells were lysed with RIPA buffer. Protein content of the lysates was determined using the modified Lowry assay (Thermo Scientific). Proteins (20 µg) were separated using an Any kD gel (SDS-PAGE) and transferred to a nitrocellulose membrane (BioRad, Temse, Belgium). Aspecific binding sites were blocked for 30 min using TBS + 1% casein (BioRad, Temse, Belgium). Western blot was performed using the following primary polyclonal antibodies overnight (4 °C): anti-p65 NFkB (1/500), anti-IκBα (1/1000) and anti-β-actin (1/1000), β-tubulin (1/4000) and anti-Histon H3.3 (1/5000) were used as loading controls. Goat anti-rabbit-AP antibody was used for detection (1/10,000) (60 min). All antibodies were purchased at Thermo Scientific (Merelbeke, Belgium). Finally, the BCIP/NBT substrate was added and the results were analyzed using the GelDoc EZ imager and Image Lab software (BioRad, Temse, Belgium). TBS buffer was used for washing between the steps.

[3] = Chemical and protease-inactivated homogenate stability; type: in vitro ADME, ICR-CD-1 mice; conditions: for Remaining amount of PapRIV: 1 hour at 37°C
Experimental: The metabolization rate of the peptide varied between different biological matrices such as serum, brain tissue, liver tissue, kidney tissue and faeces. […] Different metabolites of the peptide could be identified. To exclude the possibility of non-enzymatic degradation, the chemical and protease-inactivated homogenate (by pre-heating the homogenate for 5 min at 95 °C) stability of the peptide was determined. Except for kidney tissue, PapRIV remained stable in protease-inactivated homogenates, pointing an enzymatic degradation in serum, liver, brain and faeces (Supplementary Table S1). In protease-inactivated kidney homogenate, approximately 45% of peptide loss after 60 min can be explained by protein interaction with some kidney specific proteins. In serum, six different metabolites were formed. The MS-spectra of the different metabolites formed and the metabolic profiles in different tissues are given in supplementary information (Supplementary Figs. S6, S7). DLPFEH is the main metabolite which is formed in all matrices, metabolization of the native peptide to this metabolite is the main contributor of the low half-lives observed in kidney tissue and serum (Supplementary Fig. S5). Also in faeces, the matrix in which PapRIV is produced by gut bacteria, metabolization to DLPFEH occurred.
Supplementary method S3: Tissue homogenate preparation
Preparation of Krebs-Henseleit buffer (pH 7.4) (KH-buffer)
The powdered medium was dissolved in 900 mL water while stirring. To this solution, 0.3790 g CaCl2×2H2O and 2.098 g NaHCO3 was subsequently added while stirring. NaOH or HCl was used to adjust to pH 7.4. This solution was then further diluted to 1000 mL using ultrapure […]
Preparation of tissue homogenates
- The liver (n = 1), kidneys (n = 6), brains (n = 3), colons (n = 4) and faeces (0.196 g) of ICR-CD-1 mice were collected.
- After cleaning and rinsing the tissues using ice-cold KH buffer, the tissues were cut in little pieces and transferred into a 50 mL tube to which 36 mL ice-cold KH buffer was added.
- The tissues were then homogenized with at tissue homogenizer.
- After the larger particles were allowed to settle for about 30 minutes at 5°C, approximately 25 mL of the middle layer was transferred into a 50 mL Falcon tube using a plastic pipette.
- After shaking the homogenates, the homogenates were dispensed into 2 mL Eppendorf tubes, and stored at -35°C until use.
- The protein content of the homogenates were determined using the Pierce Modified Lowry […]
- Just before use, the homogenates were diluted to a protein concentration of 0.6 mg/mL (i.e.
300 µg / 500 µL) with KH buffer.
- Into a 1.5 ml Protein LoBind tube, 900 µl of serum/tissue extract (500 µl of homogenate/serum and 400 µl of KH buffer, pH 7.4) was transferred.
- After temperature-equilibration at 37°C for 15 min while shaking at 750 rpm, 100 µl of peptide solution (0.1 mg/mL) was added followed by continued incubation at 37°C (while shaking), with […] aliquots taken after 0, 5, 10, 30 and 60 minutes.
- The aliquots were immediately transferred into 500 µl Protein LoBind Eppendorf tubes containing 100 µl of 1% V/V trifluoroacetic acid solution in water, heated for 5 minutes at 95°C, and cooled for 30 minutes in an ice-bath.
- The samples were then centrifuged at 16,000 g for 5 minutes at 5°C.
- The supernatants was then analyzed by UPLC-UV/MS.
Supplementary table S1: Chemical and protease-inactivated homogenate stability of PapRIV […]
Matrix Remaining amount of PapRIV (%)

For “SDLPFEH [PapRIV, heptapeptide (SDLPFEH) quorum sensing peptide originating from the Bacillus cereus group; synthetic, purchased from GL Biochem]”, the “IL-6 mRNA expression” value (BV-2 cells [1]) was “increased”, the NF-kB nuclear translocation (BV-2 cells [2]; 20 h, n = 3) was “increased” and the NIK expression (BV-2 cells [2]; data not shown) was “not observed”. The IκBα levels (BV-2 cells [2]; n = 3) was “decreasing”, the “Remaining amount of PapRIV” value ([3]; Inactivated brain homogenate (pre-heated 5 min at 95 °C)) was 101.0% and the “Remaining amount of PapRIV” value ([3]; Inactivated colon homogenate (pre-heated 5 min at 95 °C)) was 99.2%. The “Remaining amount of PapRIV” value ([3]; Inactivated faeces homogenate (pre-heated 5 min at 95 °C)) was 101.4%, the “Remaining amount of PapRIV” value ([3]; Inactivated kidney homogenate (pre-heated 5 min at 95 °C)) was 53.8% and the “Remaining amount of PapRIV” value ([3]; Inactivated liver homogenate (pre-heated 5 min at 95 °C)) was 101.6%. The “Remaining amount of PapRIV” value ([3]; Inactivated serum (pre-heated 5 min at 95 °C)) was 99.0%, the “Remaining amount of PapRIV” value ([3]; KH-buffer (Krebs-Henseleit, pH 7.4), chemical stability) was 99.8% and the peptide loss ([3]; protease-inactivated kidney homogenate, after 60 min, explained by protein interaction) was “approximately 45%”.
